In the supplement of paper PMC7046801:
Where a name gives a salt, the structure may show the parent alone.

What was measured:
Conditions in all cases: 24 h
[1] = system: NHEK immortalized keratinocytes
[2] = system: NHEK immortalized keratinocytes; assay: IC50 cell viability (CellTiter-Glo)
[3] = system: NKTC primary neonatal keratinocytes
[4] = system: NKTC primary neonatal keratinocytes; assay: IC50 cell viability (CellTiter-Glo)

Row | Compound | IC50 cell viability (WST-8) [1] | IC50 cell viability [2] | IC50 cell viability (WST-8) [3] | IC50 cell viability [4]
1 | CC(=O)N1CCN(c2ccc(OCC3COC(Cn4ccnc4)(c4ccc(Cl)cc4Cl)O3)cc2)CC1 (centres undefined) [Ketoconazole] | 14 µM | 26.4 µM | – | –
2 | C=C/C=C\CC1=C(C)[C@@H](OC(=O)[C@@H]2[C@@H](/C=C(\C)C(=O)OC)C2(C)C)CC1=O.C=C/C=C\CC1=C(C)[C@@H](OC(=O)[C@@H]2[C@@H](C=C(C)C)C2(C)C)CC1=O [Pyrethrins] | 34.8 µM | – | – | –
3 | CCCCCCCCCCCC[N+](C)(C)Cc1ccccc1 [Benzyldimethyldodecylammonium chloride] | 3.36 µM | 2.91 µM | 22.2 µM | 43.1 µM
4 | N#CCCC(Br)(C#N)CBr (centres undefined) [1,2-Dibromo-2,4-dicyanobutane] | > 88 µM | 60.4 µM | > 88 µM | 77.7 µM
5 | CC1(C)CNC(=NN=C(/C=C/c2ccc(C(F)(F)F)cc2)/C=C/c2ccc(C(F)(F)F)cc2)NC1 [Hydramethylnon] | 27 µM | 17 µM | 51.3 µM | 38.9 µM
6 | [K+].[K+].[O]=[Cr](=[O])([O-])[O][Cr](=[O])(=[O])[O-] [Potassium dichromate] | 1.97 µM | 1.66 µM | 2.3 µM | 2.53 µM
7 | CCCCCCCCCCCCN1CCCC1=O [1-Dodecyl-2-pyrrolidinone] | 15.8 µM | 18.4 µM | – | 29.1 µM
8 | O=C1C=CC(=C(c2ccc(O)cc2)c2ccccc2S(=O)(=O)O)C=C1 [Phenol Red sodium salt] | – | 79.9 µM | – | –
9 | O=[N+]([O-])C(Br)(CO)CO [Bronopol] | 24.9 µM | 24.1 µM | 53.8 µM | 73.2 µM
10 | CC(=O)OCC(C)OC(C)=O (centres undefined) [Propylene glycol diacetate] | 27.7 µM | 35.7 µM | – | –
11 | CC(C)(C)c1cc(O)ccc1O [tert-Butylhydroquinone] | > 88 µM | 77.7 µM | – | 58.1 µM
12 | O=c1[nH]sc2ccccc12 [1,2-Benzisothiazolin-3-one] | 1.68 µM | 1.26 µM | 21.4 µM | 16 µM
13 | O=[N+]([O-])c1ccc(Cl)c([N+](=O)[O-])c1 [1-Chloro-2,4-dinitrobenzene] | 4.76 µM | 5.43 µM | 9.18 µM | 9.18 µM
14 | CN(C)c1ccc(C(=C2C=CC(=[N+](C)C)C=C2)c2ccc(N(C)C)cc2)cc1 [Methylrosaniline chloride] | 1.51 µM | 1.99 µM | 42.8 µM | 41.5 µM
15 | N#CC(Cl)(Cl)Cl [Trichloroacetonitrile] | 1.2 µM | 0.8 µM | 6.07 µM | 5.34 µM
16 | Cc1ccc(/C=C2/C(=O)C3(C)CCC2C3(C)C)cc1 (centres undefined) [Enzacamene] | > 88 µM | 71.3 µM | > 88 µM | 71.6 µM
17 | CCCCN(CCC(=O)OCC)C(C)=O [Ethyl 3-(N-butylacetamido)propionate] | – | 21 µM | – | –
18 | Oc1c(Cl)cc(Cl)c(Cl)c1Cc1c(O)c(Cl)cc(Cl)c1Cl [Hexachlorophene] | 0.37 µM | 0.39 µM | 2.28 µM | 18.8 µM
19 | O=C(Nc1ccc(Cl)cc1)Nc1ccc(Cl)c(Cl)c1 [Triclocarban] | 2.31 µM | 2.7 µM | – | 6.78 µM
20 | Oc1cc(Cl)ccc1Oc1ccc(Cl)cc1Cl [Triclosan] | > 88 µM | 55.1 µM | 87.4 µM | > 88 µM
21 | CC(C)(c1ccc(OCC2CO2)cc1)c1ccc(OCC2CO2)cc1 (centres undefined) [Bisphenol A diglycidyl ether] | 43.7 µM | 39.1 µM | 65.2 µM | 71.2 µM
22 | CCN(CC)c1ccc(C(=C2C=CC(=[N+](CC)CC)C=C2)c2ccc(S(=O)(=O)O)cc2S(=O)(=O)[O-])cc1 [Sulfan blue] | – | 41.3 µM | – | –
23 | Cc1c2ccccc2c(C)c2c1ccc1ccccc12 [7,12-Dimethylbenz(a)anthracene] | 46.2 µM | 46.2 µM | 46.2 µM | 46.2 µM
24 | CCCCC(CC)COC(=O)C(C#N)=C(c1ccccc1)c1ccccc1 (centres undefined) [Octocrylene] | 9.8 µM | 16.6 µM | – | –
25 | CCCCCCCCCCCCOC(=O)c1cc(O)c(O)c(O)c1 [Dodecyl gallate] | 23.5 µM | 21 µM | – | –

Row | Compound | IC50 cell viability (WST-8) [1] | IC50 cell viability [2] | IC50 cell viability (WST-8) [3] | IC50 cell viability [4]
26 | CC(C)(C)C(=O)C(Oc1ccc(Cl)cc1)n1ccnc1 (centres undefined) [Climbazole] | – | 0.42 µM | – | –
27 | C=CC(=O)OCCCCCCCC(C)C [Isodecyl acrylate] | 1.54 µM | 3.55 µM | – | –
28 | O=CCc1ccccc1 [Phenylacetaldehyde] | > 88 µM | > 88 µM | – | –
29 | CNc1ccc(O)cc1 [p-Methylaminophenol sulfate] | 8.53 µM | 6.78 µM | 13.9 µM | 24.3 µM
30 | CC(=O)[O][Hg][c]1ccccc1 [Phenylmercuric acetate] | 0.01 µM | 0.06 µM | 0.38 µM | 0.37 µM
31 | C=CC(=O)OCC(CC)(COC(=O)C=C)COC(=O)C=C [Trimethylolpropane triacrylate] | 24.9 µM | 24.9 µM | 24.9 µM | 20.6 µM
32 | COC(C)(C)CCC[C@H](C)C/C=C/C(C)=C/C(=O)OC(C)C [S-Methoprene] | 82.5 µM | 82.5 µM | – | –
33 | Cn1sccc1=O [2-Methyl-4-isothiazolin-3-one hydrochloride] | 32.2 µM | 39.9 µM | – | –
34 | COc1ccc(C(C)=O)cc1 [4'-Methoxyacetophenone] | 53.4 µM | 55.5 µM | – | –
35 | CCCCCCCCCCCCCCCCOCCOCCOCCOCCOCCOCCOCCOCCOCCOCCOCCOCCOCCOCCOCCOCCOCCOCCOCCOCCO [Polyethylene glycol (20) hexadecyl ether] | 13.3 µM | – | – | –
36 | O=CCCCC=O [Glutaraldehyde] | 24.4 µM | 20.2 µM | > 88 µM | > 88 µM
37 | CN=C1C=CC(=C(c2ccc(N(C)C)cc2)c2ccc(N(C)C)cc2)C=C1 [Methyl Violet] | 0.51 µM | 0.64 µM | – | –
38 | CCCCCCCCCCCC(=O)O [Dodecanoic acid] | 58.1 µM | 58.1 µM | > 88 µM | > 88 µM
39 | CCCCCCCCCCCCc1ccc(S(=O)(=O)O)cc1 [Dodecylbenzenesulfonic acid] | 29.5 µM | 25.8 µM | 23 µM | 29.9 µM
40 | C[C@H](O)CCO [1,3-Butanediol] | 5.52 µM | 13.5 µM | – | –
41 | O=c1c(-c2ccccc2)c1-c1ccccc1 [Diphenylcyclopropenone] | 36.6 µM | 30.8 µM | 5.47 µM | 5.69 µM
42 | Oc1c(Cl)c(Cl)c(Cl)c(Cl)c1Cl [Pentachlorophenol] | 0.12 µM | 0.51 µM | 1.18 µM | 4.23 µM
43 | O=C1OC2(c3cc(Br)c(O)c(Br)c3Oc3c2cc(Br)c(O)c3Br)c2c(Cl)c(Cl)c(Cl)c(Cl)c21 [D&C Red 27] | – | 44.9 µM | 22.3 µM | 28.1 µM
44 | C=C1CC[C@H](O)C/C1=C/C=C1\CCC[C@]2(C)[C@@H]([C@H](C)CCCC(C)C)CC[C@@H]12 [Vitamin D3] | 12.7 µM | 13.7 µM | – | –
45 | O=C(c1ccccc1)c1ccc(O)cc1O [2,4-Dihydroxybenzophenone] | 44.4 µM | 58.1 µM | – | –
46 | CCCCNC(=O)OCC#CI [3-Iodo-2-propynyl-N-butylcarbamate] | > 88 µM | 76.7 µM | – | –
47 | Oc1ccc(O)cc1 [Hydroquinone] | – | 39.1 µM | – | –
48 | C=CC(=O)OCCO [2-Hydroxyethyl acrylate] | 17.4 µM | 35.1 µM | – | –
49 | CC1=CC(=C(c2ccc(N)cc2)c2ccc(N)cc2)C=CC1=N [C.I. Basic Violet 14] | – | 1.16 µM | – | –
50 | CCN(CC)c1ccc2c(-c3ccccc3C(=O)O)c3ccc(=[N+](CC)CC)cc-3oc2c1 [Rhodamine B] | – | 42.8 µM | – | –
